Data: patent US20220313678A1 (priority 2021, published 2022)
Where two headings read alike, the source gives them in different places.

Assays:
[1] = free base (non-protonated); cited from earlier work
[2] = 1:1 v:v, about 25° C., about 24 hours
Method: Each of Samples 1-8 is prepared by and measured according to the following method. Liquid nicotine is added at the target nicotine concentration to a vessel containing an oil phase. The oil phase containing nicotine is mixed with an aqueous phase at a one-to-one volume ratio (v:v) using an orbital shaker at about 100 rotations per minute (rpm) for about 5 minutes to prepare a nicotine oil: aqueous phase mix. The nicotine oil: aqueous phase mix is allowed to sit at room temperature (about 25° C.) for about 24 hours. A concentration of nicotine in each of the oil phase and the nicotine phase is measured using a liquid chromatography method. A partition coefficient, which is a ratio concentrations of a compound (i.e., nicotine) in two immiscible solvents (i.e., an oil phase and an aqueous phase) at equilibrium, is calculated for each sample. The partition coefficient is a comparison of the solubilities of the nicotine in the two liquid phases.
Samples 1-6 include MCT oil (CAS No. 73398-61-5) as an oil phase. Sample 7 includes triacetin oil as an oil phase. Sample 8 includes triolein oil as an oil phase. Sample 1 includes deionized (DI) water as an aqueous phase. Sample 2 includes basified DI water having a pH of 7.4 as an aqueous phase. Sample 3 includes artificial saliva having a pH of 6.8 as an aqueous phase. Artificial saliva simulates mucus conditions. […]

Compound: CN1CCCC1c1cccnc1 (stereo not drawn) [nicotine, 3-(1-methyl-2-pyrrolidinyl) pyridine]
- pKa value [1]: about 8
- partition coefficient (oil phase : aqueous phase) ([2]; Samples 1-4: MCT oil vs DI water, basified DI water pH 7.4, artificial saliva pH 6.8, acidified DI water pH 2): greater than 1
- partition coefficient (oil phase : aqueous phase) ([2]; Samples 5-8: MCT, triacetin or triolein oil vs 1M acetic acid pH adjuster pH 2): less than 1
